# In patent publication US20210379067A1 (iOmx Therapeutics AG, priority 2018, published 2021):
# Tests used:
# PANC-1-luc cells = assay: Sensitisation of tumour cells to in-vitro TNF attack (luciferase-based killing assay); assay type: cell-based, human; settings: compound plus rHuTNF (10 ng/mL) vs compound alone; FIG. 6
# Experimental: R&D Systems), and also the speed of onset of this effect. PANC1-luc is an HLA-A2.1+ luciferase-expressing pancreatic adenocarcinoma (PDAC) tumour cell line, and […]-A2-luc is an HLA-A2.1+ luciferase-expressing melanoma tumour cell line. […] After lysis, luciferase assay buffer is added and immediately the luciferase intensity was measured by using the TECAN-Spark microplate reader. The PANC1-luc cell line is constructed as follows: PANC-1 cells acquired from the American Type Cell Culture (ATCC). Tumour cells are transfected with a pEGFP-Luc plasmid, using TransIT-LT1 (Mirus) as transfection reagent. Transfected cells are selected with 1 mg/mL of G418/Geneticin, and 14 days after selection EGFP+ cells are sorted using, eg a BD […] II cell sorter.
# RAF1 = target: T1, RAF1 (Homo sapiens, UniProt P04049, Y340D/Y341D); assay: Kinase Profiler single-point (1 uM) inhibition; assay type: biochemical; settings: 1 uM compound, read-out: residual activity class (FIG. 3)
# T1 construct: purchased ProQinase, Freiburg, Germany (Kinase Profiler service)
# T1 sequence (P04049 307-648 Y340D/Y341D limits assumed): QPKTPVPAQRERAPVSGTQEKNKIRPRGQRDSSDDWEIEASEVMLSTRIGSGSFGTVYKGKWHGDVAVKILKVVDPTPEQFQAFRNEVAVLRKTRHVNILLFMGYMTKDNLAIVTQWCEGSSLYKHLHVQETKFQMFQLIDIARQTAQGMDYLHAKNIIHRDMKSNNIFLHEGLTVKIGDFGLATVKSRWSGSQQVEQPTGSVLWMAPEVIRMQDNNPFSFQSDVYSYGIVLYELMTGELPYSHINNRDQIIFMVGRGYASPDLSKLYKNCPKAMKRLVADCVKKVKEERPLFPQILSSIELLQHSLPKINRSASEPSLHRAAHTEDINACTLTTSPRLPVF
# KU812 tumours = settings: large KU812 tumours; 50 mg/kg/day for 5 days; cited from earlier work
# K562 CML cells = settings: similar study, cited from earlier work
# JAK1 aa583-1154 wt = target: T2, JAK1 aa583-1154 wt (Homo sapiens, UniProt P23458); assay: Kinase Profiler single-point (1 uM) inhibition; assay type: biochemical
# T2 construct: JAK1 aa583-1154 wt; purchased ProQinase
# T2 sequence (P23458 583-1154): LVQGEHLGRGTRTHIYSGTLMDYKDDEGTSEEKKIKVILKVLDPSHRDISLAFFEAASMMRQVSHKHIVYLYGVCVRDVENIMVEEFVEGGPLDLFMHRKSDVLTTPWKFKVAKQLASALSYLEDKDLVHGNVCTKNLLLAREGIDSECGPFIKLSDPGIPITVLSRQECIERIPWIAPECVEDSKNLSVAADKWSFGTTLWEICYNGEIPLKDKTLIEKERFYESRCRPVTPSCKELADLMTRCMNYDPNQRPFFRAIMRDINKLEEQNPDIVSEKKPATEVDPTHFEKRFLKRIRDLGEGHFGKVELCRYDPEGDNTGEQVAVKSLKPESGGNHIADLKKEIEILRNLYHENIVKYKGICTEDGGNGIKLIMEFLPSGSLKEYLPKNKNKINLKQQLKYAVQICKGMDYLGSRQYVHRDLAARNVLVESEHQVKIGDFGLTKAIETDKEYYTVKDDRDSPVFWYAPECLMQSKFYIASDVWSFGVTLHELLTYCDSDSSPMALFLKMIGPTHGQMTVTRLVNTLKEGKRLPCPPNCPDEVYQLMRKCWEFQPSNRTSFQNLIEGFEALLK
# M579-A2-luc cells = assay: Sensitisation of tumour cells to in-vitro TNF attack (luciferase-based viability readout); assay type: cell-based, human; settings: TNF 10 ng/mL; compound between about 10 and 100 nM; FIG. 7
# Experimental: PANC1-luc is an HLA-A2.1+ luciferase-expressing pancreatic adenocarcinoma (PDAC) tumour cell line, and M579-A2-luc is an HLA-A2.1+ luciferase-expressing melanoma tumour cell line.
# After lysis, luciferase assay buffer is added and immediately the luciferase intensity was measured by using the TECAN-Spark microplate reader.
# SIK1 = target: T3, SIK1 (Homo sapiens, UniProt P57059); assay: 33PanQinase radiometric protein kinase assay (IC50); assay type: biochemical
# T3 construct: purchased ProQinase
# T3 sequence (P57059 whole entry): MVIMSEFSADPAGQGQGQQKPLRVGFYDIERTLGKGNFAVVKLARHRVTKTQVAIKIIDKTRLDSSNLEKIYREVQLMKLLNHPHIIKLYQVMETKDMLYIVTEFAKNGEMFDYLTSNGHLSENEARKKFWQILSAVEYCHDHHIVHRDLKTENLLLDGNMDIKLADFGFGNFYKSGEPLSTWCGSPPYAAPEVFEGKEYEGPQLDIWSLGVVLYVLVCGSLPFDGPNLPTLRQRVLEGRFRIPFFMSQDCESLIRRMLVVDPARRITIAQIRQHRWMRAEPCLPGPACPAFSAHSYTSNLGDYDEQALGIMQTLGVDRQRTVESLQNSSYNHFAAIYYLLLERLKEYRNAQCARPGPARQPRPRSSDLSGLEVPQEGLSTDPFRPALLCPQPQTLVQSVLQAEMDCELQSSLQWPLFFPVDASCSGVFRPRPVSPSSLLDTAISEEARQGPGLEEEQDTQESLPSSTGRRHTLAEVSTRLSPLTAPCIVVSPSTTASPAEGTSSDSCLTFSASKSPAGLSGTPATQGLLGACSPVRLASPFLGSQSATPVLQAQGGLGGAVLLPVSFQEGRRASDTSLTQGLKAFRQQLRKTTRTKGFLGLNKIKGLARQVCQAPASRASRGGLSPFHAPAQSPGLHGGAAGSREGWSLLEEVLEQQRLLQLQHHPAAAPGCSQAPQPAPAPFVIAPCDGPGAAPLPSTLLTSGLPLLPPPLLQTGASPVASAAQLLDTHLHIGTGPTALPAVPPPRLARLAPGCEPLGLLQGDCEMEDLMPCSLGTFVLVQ
# Experimental: (§1) Incorporation of 33Pi was determined with a microplate scintillation counter (Microbeta, Wallac).
# SIK3 = target: T4, SIK3 (Homo sapiens, UniProt Q9Y2K2); assay: as above; assay type: biochemical
# T4 construct: purchased ProQinase
# T4 sequence (Q9Y2K2 whole entry): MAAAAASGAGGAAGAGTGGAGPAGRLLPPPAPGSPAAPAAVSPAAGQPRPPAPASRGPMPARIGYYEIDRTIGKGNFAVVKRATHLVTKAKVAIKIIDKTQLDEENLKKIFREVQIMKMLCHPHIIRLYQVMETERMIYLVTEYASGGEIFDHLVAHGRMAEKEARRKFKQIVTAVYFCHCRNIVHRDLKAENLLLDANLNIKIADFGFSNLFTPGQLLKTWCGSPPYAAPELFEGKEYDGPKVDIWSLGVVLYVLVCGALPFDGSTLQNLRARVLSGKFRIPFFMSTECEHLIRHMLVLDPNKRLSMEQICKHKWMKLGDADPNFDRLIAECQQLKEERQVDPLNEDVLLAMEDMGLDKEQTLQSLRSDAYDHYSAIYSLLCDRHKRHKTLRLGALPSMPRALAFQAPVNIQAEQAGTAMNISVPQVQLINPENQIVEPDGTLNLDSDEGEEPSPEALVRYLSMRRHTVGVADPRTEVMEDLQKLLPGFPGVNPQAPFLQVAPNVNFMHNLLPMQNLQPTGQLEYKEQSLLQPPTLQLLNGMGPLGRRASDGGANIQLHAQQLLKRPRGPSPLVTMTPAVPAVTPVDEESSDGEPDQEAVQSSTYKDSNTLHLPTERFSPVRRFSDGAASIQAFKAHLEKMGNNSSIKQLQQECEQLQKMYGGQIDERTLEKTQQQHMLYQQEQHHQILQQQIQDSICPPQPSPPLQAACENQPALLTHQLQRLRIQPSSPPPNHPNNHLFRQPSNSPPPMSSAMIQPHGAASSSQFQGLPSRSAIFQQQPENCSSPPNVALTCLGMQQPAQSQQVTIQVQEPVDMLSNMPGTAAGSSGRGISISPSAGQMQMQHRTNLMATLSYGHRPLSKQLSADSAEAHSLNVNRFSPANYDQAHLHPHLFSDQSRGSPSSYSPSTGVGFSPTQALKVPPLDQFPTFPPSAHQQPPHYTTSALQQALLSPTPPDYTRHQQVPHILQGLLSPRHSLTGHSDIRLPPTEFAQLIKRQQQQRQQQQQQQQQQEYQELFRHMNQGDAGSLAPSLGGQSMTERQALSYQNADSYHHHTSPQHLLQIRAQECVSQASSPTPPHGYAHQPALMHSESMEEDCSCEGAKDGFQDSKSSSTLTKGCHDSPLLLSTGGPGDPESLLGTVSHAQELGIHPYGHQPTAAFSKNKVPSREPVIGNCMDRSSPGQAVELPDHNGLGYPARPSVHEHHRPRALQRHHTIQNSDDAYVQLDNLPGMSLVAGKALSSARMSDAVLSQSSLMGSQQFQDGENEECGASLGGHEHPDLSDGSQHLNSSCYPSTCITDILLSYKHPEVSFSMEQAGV
# Experimental: as §1
# SIK2 = target: T5, SIK2 (Homo sapiens, UniProt Q9H0K1); assay: as above; assay type: biochemical
# T5 construct: purchased ProQinase
# T5 sequence (Q9H0K1 whole entry): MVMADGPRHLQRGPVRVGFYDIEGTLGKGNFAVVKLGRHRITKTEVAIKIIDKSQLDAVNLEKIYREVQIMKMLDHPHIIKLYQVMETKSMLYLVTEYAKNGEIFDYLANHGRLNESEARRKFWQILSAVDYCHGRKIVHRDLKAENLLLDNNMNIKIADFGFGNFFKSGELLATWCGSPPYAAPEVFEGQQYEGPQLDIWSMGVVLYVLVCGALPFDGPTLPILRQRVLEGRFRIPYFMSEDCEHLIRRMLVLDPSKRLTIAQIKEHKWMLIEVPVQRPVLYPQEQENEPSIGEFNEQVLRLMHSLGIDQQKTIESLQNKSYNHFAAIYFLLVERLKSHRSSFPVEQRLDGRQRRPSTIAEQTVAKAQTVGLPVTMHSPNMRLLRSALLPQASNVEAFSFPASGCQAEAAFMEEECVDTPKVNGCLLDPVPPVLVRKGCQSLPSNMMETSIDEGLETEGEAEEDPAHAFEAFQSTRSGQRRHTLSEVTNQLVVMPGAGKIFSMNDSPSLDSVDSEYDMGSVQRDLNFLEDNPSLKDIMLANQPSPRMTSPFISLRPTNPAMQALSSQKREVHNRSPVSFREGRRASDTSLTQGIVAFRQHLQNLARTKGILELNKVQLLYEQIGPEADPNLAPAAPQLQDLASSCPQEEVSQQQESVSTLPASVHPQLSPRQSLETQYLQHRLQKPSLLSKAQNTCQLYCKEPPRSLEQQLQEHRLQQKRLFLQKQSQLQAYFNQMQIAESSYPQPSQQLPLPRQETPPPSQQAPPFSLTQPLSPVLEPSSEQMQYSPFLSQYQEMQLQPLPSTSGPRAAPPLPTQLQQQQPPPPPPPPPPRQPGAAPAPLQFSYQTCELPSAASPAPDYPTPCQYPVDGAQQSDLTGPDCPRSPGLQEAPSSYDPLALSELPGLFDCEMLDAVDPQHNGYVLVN
# Experimental: as §1
# [1] = Human liver microsomal stability; assay type: in vitro ADME
# MDR1 = assay: in vitro; settings: dog, MDCK-MDR1
# in vitro = settings: dog, MDCK
# [2] = Mouse liver microsomal stability; assay type: in vitro ADME; settings: liver microsomes, read-out: Intrinsic clearance
# ABL1 wt = target: T6, ABL1 wt (Homo sapiens, UniProt P00519); assay: 33PanQinase radiometric protein kinase assay (IC50); assay type: biochemical
# T6 construct: the ABL1 wild-type protein (amino acids P118-S525); purchased ProQinase
# T6 sequence (P00519 118-535 limits assumed): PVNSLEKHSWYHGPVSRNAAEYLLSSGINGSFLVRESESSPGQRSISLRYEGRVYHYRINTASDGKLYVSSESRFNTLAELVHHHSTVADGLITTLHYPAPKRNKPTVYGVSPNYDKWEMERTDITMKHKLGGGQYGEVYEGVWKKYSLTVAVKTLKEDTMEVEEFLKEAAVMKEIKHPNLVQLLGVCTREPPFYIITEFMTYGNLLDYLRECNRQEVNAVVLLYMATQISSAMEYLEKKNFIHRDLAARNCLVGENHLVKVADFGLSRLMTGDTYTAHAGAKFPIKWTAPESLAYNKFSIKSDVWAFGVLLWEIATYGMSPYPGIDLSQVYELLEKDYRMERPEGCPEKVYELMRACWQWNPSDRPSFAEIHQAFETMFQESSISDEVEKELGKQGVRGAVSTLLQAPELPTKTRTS
# Experimental: as §1
# SRC = target: T7, SRC (Homo sapiens, UniProt P12931); assay: as above; assay type: biochemical
# T7 construct: GST; HIS; purchased ProQinase (inferred from the trademark)
# T7 sequence (P12931 whole entry): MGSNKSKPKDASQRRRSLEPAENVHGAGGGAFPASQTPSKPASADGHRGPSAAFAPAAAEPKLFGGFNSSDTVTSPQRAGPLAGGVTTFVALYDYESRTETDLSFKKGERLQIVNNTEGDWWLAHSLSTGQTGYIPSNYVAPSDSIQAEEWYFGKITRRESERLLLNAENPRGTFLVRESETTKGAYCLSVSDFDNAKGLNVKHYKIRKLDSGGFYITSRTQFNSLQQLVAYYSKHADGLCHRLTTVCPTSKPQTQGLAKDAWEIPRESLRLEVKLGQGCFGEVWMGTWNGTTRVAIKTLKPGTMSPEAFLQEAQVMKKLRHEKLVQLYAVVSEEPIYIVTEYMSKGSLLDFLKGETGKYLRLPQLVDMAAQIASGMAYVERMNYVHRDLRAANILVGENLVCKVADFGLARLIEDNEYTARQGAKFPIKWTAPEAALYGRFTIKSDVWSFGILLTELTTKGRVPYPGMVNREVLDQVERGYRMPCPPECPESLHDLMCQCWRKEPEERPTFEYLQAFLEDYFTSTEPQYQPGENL
# Experimental: as §1
# K562 human CML tumours = settings: high doses; cited from earlier work
smiles,measurement,setting,value
"Cc1nc(Nc2ncc(C(=O)Nc3c(C)cccc3Cl)s2)cc(N2CCN(CCO)CC2)n1 [Compound A8, N-(2-chloro-6-methylphenyl)-2-((6-(4-(2-hydroxyethyl)piperazin-1-yl)-2-methylpyrimidin-4-yl)amino)thiazole-5-carboxamide]",sensitisation of tumour cells to TNF attack,PANC-1-luc cells,sensitisation of tumour-cells to in-vitro TNF-attack
same,remaining activity at 1 µM,RAF1,< 25%
same,tumour response,KU812 tumours,curative
same,survival,K562 CML cells; 10 and 30 mg/kg/day,increased survival
same,Residual activity (%) at 1 uM,JAK1 aa583-1154 wt,41%
"Cc1nc(Nc2ncc(C(=O)Nc3c(Cl)cccc3Br)s2)cc(N2CCN(CCO)CC2)n1 [Compound B1, N-(2-bromo-6-chlorophenyl)-2-((6-(4-(2-hydroxyethyl)piperazin-1-yl)-2-methylpyrimidin-4-yl)amino)thiazole-5-carboxamide]",tumour cell cytotoxicity with TNF compared to inhibitor alone,M579-A2-luc cells,increased cytotoxicity
same,inhibitory activity,SIK1,pan-SIK and ABL1 & SRC inhibitor
same,inhibitory activity,SIK3,pan-SIK and ABL1 & SRC inhibitor
same,inhibitory activity,SIK2,pan-SIK and ABL1 & SRC inhibitor
"Cc1nc(Nc2ncc(C(=O)Nc3c(Cl)ccnc3C)s2)cc(N2CCN(CCO)CC2)n1 [Compound B3, N-(4-chloro-2-methylpyridin-3-yl)-2-((6-(4-(2-hydroxyethyl)piperazin-1-yl)-2-methylpyrimidin-4-yl)amino)thiazole-5-carboxamide]","drug remaining at 40 min, times more than dasatinib",[1]; hLM assay,10 times
same,"half-life, times longer than dasatinib",[1]; hLM assay,~6 times
same,microsomal CLint,"[1]; liver microsomes, human liver microsomal stability, read-out: Intrinsic clearance",24 µL/min/mg
same,sensitisation of tumour cells to TNF attack,PANC-1-luc cells,sensitisation of tumour-cells to in-vitro TNF-attack
same,Papp A→B,MDR1,< 0.8 ×10⁻⁶ cm/s
same,Papp B→A,MDR1,20 ×10⁻⁶ cm/s
same,Papp A→B,in vitro,6.8 ×10⁻⁶ cm/s
same,Papp B→A,in vitro,20 ×10⁻⁶ cm/s
same,microsomal CLint,[2],22 µL/min/mg
"COc1c(F)cccc1NC(=O)c1cnc(Nc2cc(N3CCN(CCO)CC3)nc(C)n2)s1 [Compound B4, N-(3-fluoro-2-methoxyphenyl)-2-((6-(4-(2-hydroxyethyl)piperazin-1-yl)-2-methylpyrimidin-4-yl)amino)thiazole-5-carboxamide]",tumour cell cytotoxicity with TNF compared to inhibitor alone,M579-A2-luc cells,fails to exhibit cytotoxicity
same,inhibitory activity,ABL1 wt,potent inhibitor of ABL1 & SRC
same,inhibitory activity,SIK1,strong inhibitor or SIK1 and SIK2
same,inhibitory activity,SRC,potent inhibitor of ABL1 & SRC
same,inhibitory activity,SIK3,weak inhibitor of SIK3
same,inhibitory activity,SIK2,strong inhibitor or SIK1 and SIK2
"CCOc1cccc(Cl)c1NC(=O)c1cnc(Nc2cc(N3CCN(CCO)CC3)nc(C)n2)s1 [Compound B8, N-(2-Chloro-6-ethoxyphenyl)-2-((6-(4-(2-hydroxyethyl)piperazin-1-yl)-2-methylpyrimidin-4-yl)amino)thiazole-5-carboxamide]",tumour cell cytotoxicity with TNF compared to inhibitor alone,M579-A2-luc cells,fails to exhibit cytotoxicity
same,inhibitory activity,SIK1,low inhibitory activity against SIK family members
same,inhibitory activity,SIK3,low inhibitory activity against SIK family members
same,inhibitory activity,SIK2,low inhibitory activity against SIK family members
Cc1ccc(NC(=O)c2ccc(CN3CCN(C)CC3)cc2)cc1Nc1nccc(-c2cccnc2)n1 [imatinib],tumour response,K562 human CML tumours,failed to produce a comparative response
same,intracranial tumour growth,K562 CML cells; 200 mg/kg/day,failed to inhibit intracranial tumour growth
